Measurements taken from patent publication US20200278355A1, “CONJUGATED PROTEINS AND USES THEREOF” (THE SCRIPPS RESEARCH INSTITUTE, priority 2017, published 2020).

Experiments:
[1] = target: T1, TXNDC12 (Homo sapiens, UniProt O95881); assay: ABPP-SILAC BPK-29yne competition in H460 cells: TXNDC12; assay type: cell-based; settings: 20 μM
T1 construct: endogenous in cells; host or cells: H460
Protocol: (§1) Isotopically labeled H460 cell lines were generated as described above. Light and heavy cells were treated with compounds (20 μM) or DMSO, respectively, for 3 h, followed by labeling with the BPK-29yne (5 μM) for 30 min. Cells were washed once ice-cold PBS and lysed in 1% Triton 100-X dissolved in PBS with protease inhibitors (Sigma) by sonication. Lysate was adjusted to 1.5 mg ml^−1 in 500 μL. Samples were conjugated by CuAAC to Biotin-PEG4-azide (5 μL of 10 mM stocks in DMSO, final concentration=100 μM). CuAAC “click” mix contained TCEP, TBTA ligand and CuSO4 as detailed for isoTOP-ABPP sample preparation. Samples were further processed as detailed in: isoTOP-ABPP streptavidin enrichment and isoTOP-ABPP trypsin TEV digestion with the following exception: after overnight incubation at 37° C. with trypsin, tryptic digests were separated from the beads with Micro Bio-Spin columns (Bio-Rad) by centrifugation (1,000×g, 1 min). Beads were rinsed once with water (200 μL) and combined with tryptic digests. […]
(§2) The MS2 spectra data were extracted and searched using RAW Convertor and ProLuCID algorithm as described in isoTOP-ABPP peptide and protein quantification. […] Ratios of heavy/light (DMSO/test compound) peaks were calculated using in-house CIMAGE software. […] The mean R values and standard deviation for multiple biological experiments were calculated from the average ratios from each replicate. […]

[2] = target: T2, GSTO1 (Homo sapiens, UniProt P78417); assay: ABPP-SILAC BPK-29yne competition in H460 cells: GSTO1; assay type: cell-based; settings: 20 μM
T2 construct: Isotopically labeled H460 cell lines were generated as described above; endogenous in cells; host or cells: H460 (SILAC-labelled)
T2 sequence (P78417 whole entry): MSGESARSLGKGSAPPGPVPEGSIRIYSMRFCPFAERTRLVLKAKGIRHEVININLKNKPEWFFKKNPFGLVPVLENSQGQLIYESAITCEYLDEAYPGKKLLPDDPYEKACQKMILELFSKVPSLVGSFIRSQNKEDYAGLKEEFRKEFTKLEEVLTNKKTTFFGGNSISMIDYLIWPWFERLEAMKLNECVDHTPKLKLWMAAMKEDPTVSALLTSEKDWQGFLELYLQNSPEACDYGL
Protocol: as §1, §2

T1 sequence (O95881 27-172): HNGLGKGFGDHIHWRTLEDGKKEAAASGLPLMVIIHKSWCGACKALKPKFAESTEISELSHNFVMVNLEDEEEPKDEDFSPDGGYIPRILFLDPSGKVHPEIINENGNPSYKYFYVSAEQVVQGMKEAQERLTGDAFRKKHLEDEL

## O=C(c1ccc(N2CCOCC2)cc1)N1CCCC(N(Cc2ccccc2)C(=O)CCl)CC1 (centres unmarked) [BPK-29, N-benzyl-2-chloro-N-(1-(4-morpholinobenzoyl)azepan-4-yl)acetamide]
[1]
  BPK-29-competed BPK-29yne analysis: Yes (Competed defined as showing R value ≥ 2.5 at 20 μM of test compound)
[2]
  BPK-29-competed BPK-29yne analysis: Yes (Competed defined as showing R value ≥ 2.5 at 20 μM of test compound)
